Measured values: article PMC9127750, “Structure-based design of CDC42 effector interaction inhibitors for the treatment of cancer” (Cell reports, 2022)
Values joined by “and” are separate entries in the source; they are usually repeats but may differ in a detail not shown here. Equal entries are not always repeated.

Tested on: WM3248 melanoma cells, 486 antibodies
Assay: Reverse phase protein arrays (RPPA)
Format: cell-based, Human
Settings: normalized to 0
Description: Pellets were snap frozen in liquid nitrogen and shipped to MD Anderson Cancer Center core RPPA facility for RPPA analysis (Table S5). Three biological replicates for each sample were generated.
Nomenclatures on the RPPA heatmaps: name_of_antibody.species_of_antibody.status_of_antibody. V - antibody validated; C - validation of antibody in progress; Q - antibody nonspecific; E – under evaluation; antibodies raised in M - mouse, G - goat, R - rabbit, or T - rat.

CN(C)c1cccc(Nc2cc(-c3ccccc3)nc(C3CCNCC3)n2)c1 [ARN22089, N1,N1-dimethyl-N3-(6-phenyl-2-(piperidin-4-yl)pyrimidin-4-yl)benzene-1,3-diamine]
GSK.3B.R.C Norm_10 (10, replicates 1-3): 0.867 and 0.924 and 0.907
GSK.3a.b.M.V Norm_10 (10, replicates 1-3): 0.998 and 1.049
GSK.3a.b_pS21_S9.R.V Norm_10 (10, replicates 1-3): 1.903 and 0.801
Gab2.R.V Norm_10 (10, replicates 1-3): 1.165 and 1.098 and 0.933
Gli1.R.C Norm_10 (10, replicates 1-3): 0.913 and 0.965 and 1.136
Gli3.R.C Norm_10 (10, replicates 1-3): 1.151 and 1.082 and 1.169
Glucocorticoid.Receptor.R.V Norm_10 (10, replicates 1-3): 1.159 and 1.201 and 0.996
Glutamate.D1.2.R.V Norm_10 (10, replicates 1-3): 0.997 and 1.319 and 1.150
Glutaminase.R.C Norm_10 (10, replicates 1-3): 0.936 and 1.126 and 1.162
Granzyme.B.R.V Norm_10 (10, replicates 1-3): 1.207 and 0.777 and 0.921
Grp75.R.C Norm_10 (10, replicates 1-3): 1.100 and 1.356 and 0.930
Gys.R.V Norm_10 (10, replicates 1-3): 0.972 and 0.858 and 0.963
Gys_pS641.R.V Norm_10 (10, replicates 1-3): 0.959 and 0.885
H2AX_pS139.R.C Norm_10 (10, replicates 1-3): 0.952 and 0.894
H2AX_pS140.M.C Norm_10 (10, replicates 1-3): 0.944 and 1.316 and 1.153
HER2.M.V Norm_10 (10, replicates 1-3): 1.003 and 1.056
HER2_pY1248.R.V Norm_10 (10, replicates 1-3): 0.907 and 0.828 and 1.009
HER3.R.V Norm_10 (10, replicates 1-3): 0.945 and 1.026 and 0.936
HER3_pY1289.R.C Norm_10 (10, replicates 1-3): 1.083 and 1.014
HES1.R.V Norm_10 (10, replicates 1-3): 1.156 and 0.918 and 0.849
Heregulin.R.V Norm_10 (10, replicates 1-3): 0.988 and 0.972 and 0.854
eEF2.R.C Norm_10 (10, replicates 1-3): 1.541 and 1.276 and 1.659
eEF2K.R.V Norm_10 (10, replicates 1-3): 1.101 and 1.387 and 1.115
eIF4E.R.V Norm_10 (10, replicates 1-3): 1.636 and 0.500 and 0.846
eIF4E_pS209.R.V Norm_10 (10, replicates 1-3): 0.984 and 0.803
eIF4G.R.C Norm_10 (10, replicates 1-3): 0.963
DRP1.R.V Norm_20 Average (20, average): 0.964
DUSP4.R.V Norm_20 Average (20, average): 0.723
DUSP6.R.C Norm_20 Average (20, average): 1.555
Dvl3.R.V Norm_20 Average (20, average): 1.031
E2F1.R.V Norm_20 Average (20, average): 1.247
E.Cadherin.R.V Norm_20 Average (20, average): 0.854
EGFR.R.V Norm_20 Average (20, average): 1.132
EGFR_pY1068.R.C Norm_20 Average (20, average): 0.914
EGFR_pY1173.R.V Norm_20 Average (20, average): 1.048
EMA.M.C Norm_20 Average (20, average): 0.783
ENY2.M.C Norm_20 Average (20, average): 0.952
ER.a.R.V Norm_20 Average (20, average): 0.959
ER.a_pS118.R.V Norm_20 Average (20, average): 1.311
ERCC5.R.C Norm_20 Average (20, average): 1.110
ERRalpha.R.V Norm_20 Average (20, average): 0.963
EVI1.R.V Norm_20 Average (20, average): 0.976
Elk1_pS383.R.C Norm_20 Average (20, average): 1.105
Enolase.2.R.V Norm_20 Average (20, average): 0.948
EphA2.R.V Norm_20 Average (20, average): 0.748
EphA2_pS897.R.C Norm_20 Average (20, average): 0.630
EphA2_pY588.R.C Norm_20 Average (20, average): 0.974
Erk5.R.V Norm_20 Average (20, average): 0.917
Ets.1.R.V Norm_20 Average (20, average): 1.379
FABP5.R.C Norm_20 Average (20, average): 1.251
FAK.R.C Norm_20 Average (20, average): 0.978
FAK_pY397.R.V Norm_20 Average (20, average): 0.925
FANCD2.R.V Norm_20 Average (20, average): 0.851
FASN.R.V Norm_20 Average (20, average): 0.957
FGF.basic.R.C Norm_20 Average (20, average): 1.005
FN14.R.C Norm_20 Average (20, average): 1.106
FOXM1.R.V Norm_20 Average (20, average): 0.936
FRS2.alpha_pY196.R.V Norm_20 Average (20, average): 1.059
FTO.R.V Norm_20 Average (20, average): 1.058
Fibronectin.R.V Norm_20 Average (20, average): 1.193
FoxO3a_pS318_S321.R.C Norm_20 Average (20, average): 1.005
G6PD.R.V Norm_20 Average (20, average): 0.954
GATA3.M.V Norm_20 Average (20, average): 1.318
GATA6.R.V Norm_20 Average (20, average): 0.955
GCLC.R.C Norm_20 Average (20, average): 1.023
GCLM.R.V Norm_20 Average (20, average): 0.992
GCN5L2.R.V Norm_20 Average (20, average): 0.995
GGPS1.M.V Norm_20 Average (20, average): 1.022
GRB2.R.V Norm_20 Average (20, average): 0.934
GRB7.R.V Norm_20 Average (20, average): 0.995
GSK.3B.R.C Norm_20 Average (20, average): 0.882
GSK.3a.b.M.V Norm_20 Average (20, average): 0.925
GSK.3a.b_pS21_S9.R.V Norm_20 Average (20, average): 1.221
Gab2.R.V Norm_20 Average (20, average): 1.169
Gli3.R.C Norm_20 Average (20, average): 1.301
Glucocorticoid.Receptor.R.V Norm_20 Average (20, average): 1.170
Glutamate.D1.2.R.V Norm_20 Average (20, average): 1.186
Grp75.R.C Norm_20 Average (20, average): 1.195
Gys_pS641.R.V Norm_20 Average (20, average): 0.856
H2AX_pS139.R.C Norm_20 Average (20, average): 1.433
H2AX_pS140.M.C Norm_20 Average (20, average): 1.232
